Structures are written as SMILES.

The values below come from patent US20260272865A1, “HYDROXYPHENYL PROPANOATE COMPOUNDS FOR TUMOUR IMMUNOTHERAPY, COMPOSITIONS AND USES THEREOF” (UTI LIMITED PARTNERSHIP, priority 2023, published 2026).

One experiment deals with IRF pathway. In kind it is cell-based, human.
The next experiment relates to NF-κB pathway. Description: NF-κB activity reporter assay in THP1-Dual cells. In kind it is cell-based, human. The following applies: for NF-κB pathway activation combined with PRR agonists: LPS or other NF-κB pathway inducers; for NF-κB pathway activation when treated with LPS: 16 hours, vs vehicle. How it is done: NF-κB and IRF induction assays were performed using mouse RAW-Dual™ (InvivoGen) and human THP1-Dua™ (InvivoGen) reporter cell lines. The cells were resuspended in freshly prepared test media at a concentration of 1.0×10^6 cells/mL for RAW-Dual™ and 5.0×10^5 cells/mL for THP1-Dual™. 180 μL of cells were seeded per well in a standard 96-well plate and optimized the concentration of several PRR agonists that trigger NF-κB and IRF. To test the metabolite effect on these pathways, 10 μL of the optimized receptor agonist, 10 μL of the 2 mM metabolite solution or vehicle was added to each well, making a final volume of 200 μL. To neutralize IL-1 receptor signalling, anti-IL-1a (clone 7D4, InvivoGen) and anti-IL-1β (clone 4H5, InvivoGen) antibodies were added and IgG1 isotype (clone T8E5, InvivoGen) was used as a control, as per manufacturer's recommendation. NF-κB activity was determined by measuring secreted embryonic alkaline phosphatase (SEAP) levels using QUANTI-Blue™ solution (InvivoGen). After aliquoting 20 μL of cell culture supernatant into 180 μL of QUANTI-Blue™, the conversion of color to blue was monitored and SEAP levels were determined using a SpectraMax i3 from Molecular Devices at 650 nm. To assess IRF induction, secreted lucia luciferase levels were measured in the culture medium using QUANTI-Luc™ solution (InvivoGen). 20 μL of cell culture supernatant was aliquoted into 50 μL of QUANTI-Luc™ solution and the luminescence reading was immediately recorded using the SpectraMax i3.

The target of the next experiment is T1, GSDMD (Homo sapiens, UniProt P57764).
T1 construct: host or cells: THP1-Dual cells (human monocytic reporter line)
T1 sequence (P57764 1-484): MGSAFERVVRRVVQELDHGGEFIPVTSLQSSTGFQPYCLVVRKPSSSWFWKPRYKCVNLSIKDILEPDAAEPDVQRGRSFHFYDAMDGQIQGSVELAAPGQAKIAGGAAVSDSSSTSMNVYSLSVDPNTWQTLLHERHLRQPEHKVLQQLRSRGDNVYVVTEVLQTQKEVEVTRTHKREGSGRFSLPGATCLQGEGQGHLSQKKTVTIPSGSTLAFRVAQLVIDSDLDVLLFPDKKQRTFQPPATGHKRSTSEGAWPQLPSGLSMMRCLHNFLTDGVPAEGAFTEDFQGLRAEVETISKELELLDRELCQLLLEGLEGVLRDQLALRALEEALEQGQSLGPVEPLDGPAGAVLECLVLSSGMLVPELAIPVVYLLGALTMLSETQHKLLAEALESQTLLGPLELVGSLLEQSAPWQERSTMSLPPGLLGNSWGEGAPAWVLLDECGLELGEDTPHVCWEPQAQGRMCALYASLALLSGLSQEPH
The experiment can be described thus: Western blot of GSDMD cleavage in THP-1 cells. The format is cell-based. How it is done: Cells were collected and lysates prepared using total lysis buffer (50 mM Tris-HCl, pH 8.0; 150 mM NaCl; 1% Triton X-100; 1% SDS). The supernatant was obtained by centrifuging at 10,000 RPM for 10 minutes at 4° C. using a benchtop PCR centrifuge. Protein quantification was performed using the Bio-Rad DC Protein Assay Kit (Bio-Rad, NC, USA). Proteins were separated using 12% SDS-PAGE gels and transferred to a PVDF membrane using the Bio-Rad Trans-turbo semi-dry transfer apparatus at 25 V/1 A for 1 hour. The membrane was blocked with Tris-buffered-saline-Tween-20™ (TBST) containing 5% skim milk for 30 minutes at room temperature. The membrane was then probed overnight at 4° C. with rabbit monoclonal recombinant anti-GSDMD antibody (ab210070, Abcam), anti-cleaved N-terminal GSDMD antibody (ab215203, Abcam) and mouse anti-actin monoclonal antibody (MAB1501, MilliporeSigma) for human FL-GSDMD, CL-GSDMD and actin. The next day, the membranes were washed with TBST three times and probed with goat anti-rabbit (1706515, Bio-Rad) or goat anti-mouse (1706516, Bio-Rad) horseradish peroxidase-conjugated IgG for 1 hour at room temperature. The secondary antibodies were diluted in TBST containing 5% (w/v) skim milk at 1:5000 and the membranes washed with TBST before detecting the proteins of interest using the Clarity™ Western ECL Substrate (Bio-Rad) on a Chemidoc-IT Imager (UVP, Upland, CA, USA).

A further experiment deals with influenza virus. The following applies: early study, Science 357, 498-502 (2017); cited from earlier work.

On to `O=C(O)CCc1cccc(O)c1` [Compound I-2, 3-(3-hydroxyphenyl)propanoic acid], for which the “IRF pathway activation combined with PRR agonists” value (“IRF pathway activation combined” for short) in the experiment on IRF pathway is listed as “potentiate”. Further, in the experiment on NF-κB pathway, the “NF-κB pathway activation combined with PRR agonists” value is “potentiate” and the “NF-κB pathway activation when treated with LPS” value is listed as “potentiates”. Besides, the “GSDMD cleavage in the presence of LPS or LPS+NG stimulation” value at GSDMD is on record as “facilitating gasdermin D cleavage”.
With `O=C(O)CCc1ccc(O)cc1` [Compound I-3, 3-(4-hydroxyphenyl)propanoic acid], in the experiment with IRF pathway, the “IRF pathway activation combined” value is given as “potentiate”. In the experiment with NF-κB pathway, the “NF-κB pathway activation combined with PRR agonists” value is “potentiate” and the “NF-κB pathway activation when treated with LPS” value was “potentiates”. Besides, in the experiment on influenza virus, the influenza virus pathology entry is “protects from influenza virus pathology” and the “type 1 interferon signalling” value is listed as “primes the amplification loop of type 1 interferon signalling”. The “GSDMD cleavage in the presence of LPS or LPS+NG stimulation” value at GSDMD is given as “facilitating gasdermin D cleavage”.
As for `O=C([O-])CCc1ccc(O)cc1.[Na+]` [Compound I-4, sodium 3-(4-hydroxyphenyl)propionic acid], the “NF-κB pathway activation when treated with LPS” value in the experiment with NF-κB pathway is “significantly enhanced the activation”.
In the case of `COC(=O)CCc1ccc(O)cc1` [Compound I-5, methyl 3-(4-hydroxyphenyl) propionate], the “NF-κB pathway activation when treated with LPS” value in the experiment on NF-κB pathway is given as “significantly enhanced the activation”.
In the case of `CCOC(=O)CCc1ccc(O)cc1` [Compound I-6, ethyl 3-(4-hydroxyphenyl)propionate], the “NF-κB pathway activation when treated with LPS” value in the experiment with NF-κB pathway was “significantly enhanced the activation”.
With `O=C(CCc1ccc(O)cc1)ON1C(=O)CCC1=O` [Compound I-7, 3-(4-hydroxyphenyl)propionic acid N-hydroxysuccinimide ester], the “NF-κB pathway activation when treated with LPS” value with NF-κB pathway is on record as “significantly enhanced the activation”.
For the compound `O=C(O)CCc1ccc(F)cc1` [II-1, 3-(4-fluorophenyl)propionic acid], in the experiment with NF-κB pathway, the “NF-κB pathway activation when treated with LPS” value was “significantly enhanced the activation”.
`O=C(O)CCc1ccc(Cl)cc1` [II-2, 3-(4-chlorophenyl)propionic acid]: in the experiment with NF-κB pathway, the “NF-κB pathway activation when treated with LPS” value was “significantly enhanced the activation”.
As to `Nc1ccc(CCC(=O)O)cc1` [II-3, 3-(4-aminophenyl)propionic acid], the “NF-κB pathway activation when treated with LPS” value in the experiment with NF-κB pathway is given as “significantly enhanced the activation”.
For the compound `Cc1ccc(CCC(=O)O)cc1` [II-4, 3-(4-methylphenyl)propionic acid], the “NF-κB pathway activation when treated with LPS” value in the experiment on NF-κB pathway is on record as “significantly enhanced the activation”.
Turning to `O=C(O)CCCc1ccc(O)cc1` [III-1, 4-(4-hydroxyphenyl)butanoic acid], the “NF-κB pathway activation when treated with LPS” value in the experiment on NF-κB pathway was “significantly enhanced the activation”.
For the compound `O=C(O)CCCCc1ccc(O)cc1` [III-2, 5-(4-hydroxyphenyl)pentatonic acid], the “NF-κB pathway activation when treated with LPS” value in the experiment with NF-κB pathway is “significantly enhanced the activation”.
Still for that read-out and setting: then `O=C(O)CCC(=O)c1ccc(O)cc1` [IV], with “significantly enhanced the activation”.
In the case of `NC(=O)CC[C@H](N)C(=O)O` [L-gln, L-glutamine, reference compound], the “IRF pathway activation combined” value in the experiment on IRF pathway is reported as “had no effect”. Moreover, the “NF-κB pathway activation when treated with LPS” value in the experiment on NF-κB pathway was “had no effect”.
